Reference: patent publication US10295463B2, “Device and method for investigating one or a plurality of phase objects” (Ludwig-Maximilians-Universität München, priority 2013, dated 2019)

Tests used:
[1] = tested on: Dictyostelium discoideum cell; assay: Cell motility by Fourier analysis of the temporal diffraction signal when an active substance is added; assay type: cell-based; settings: active substance added to the medium in the sample chamber at time t=0; FIG. 14
Text: In FIG. 11b, a three-dimensional view is shown top left, a plan view is shown top right, and a cross section of the sample holder G is shown at the bottom. […] A surrounding medium or an active substance can be introduced into the receptacle, which is formed by the sample chamber. A sensor with a grid, which is arranged on a substrate, is located within the sample chamber. […] Furthermore, biological cells are located on the grid, where the reaction of the cells to the active substances is to be investigated. In particular, in the illustrated case is to be investigated how the motility of the cells changes due to the addition of the active substance.
In this case, the time axis runs from top to bottom and the frequency axis runs from left to right. At time t=0, the active substance, Latruncalin A, is added to the medium located in the sample chamber.

[2] = tested on: bacteria; assay: Bacteria population growth and activity from intensity of a diffraction maximum, treatment with antibiotic; assay type: cell-based
Text: In FIG. 16, it can be seen that the intensity of the diffraction maximum decreases with time for the bacteria sample. This decrease is due to an increasing division of the bacteria, i.e. a continuous increase in the bacteria population or, in other words, an increase in the number of phase objects which increasingly disturb the constructive interference in the diffraction maximum and thereby lead to a decrease in the intensity. In FIG. 16, it can be further observed that with increasing time, the intensity increasingly fluctuates, which can be attributed to the activity of the cells.
Further shown in FIG. 17 is an exemplary enlarged section of the course of the measurement signals, in which the fluctuations of the signal can be clearly seen. By fitting a growth curve, which includes the division rate as a parameter, the division rate of the bacteria can be discerned from the signal.
It can be seen from FIG. 18 that the standard deviation increases with time. This standard deviation represents fluctuations of the signals on a short time scale which in turn are a measure for the activity of the bacteria, which will be explained in more detail with reference to FIG. 19 below.

| SMILES | temporal course of the Fourier coefficients [1] | normalized intensity of the diffraction maximum as a function of time ([2]; 4 mg/l applied at 60 min., FIG. 19 row 3 column c) | mean value of the standard deviation of the intensity as a function of time ([2]; 4 mg/l applied at 60 min., FIG. 19 row 3 column d) | normalized intensity of the diffraction maximum as a function of time ([2]; double dose of 2 mg/1, FIG. 19 row 2 column c) | mean value of the standard deviation of the intensity as a function of time ([2]; double dose of 2 mg/1, FIG. 19 row 2 column d) | normalized intensity of the diffraction maximum as a function of time ([2]; treated after 60 min. of growth, concentration 1 mg/l, FIG. 19 row 1 column c) | mean value of the standard deviation of the intensity as a function of time ([2]; treated after 60 min. of growth, concentration 1 mg/l, FIG. 19 row 1 column d) |
| --- | --- | --- | --- | --- | --- | --- | --- |
| C/C1=C/C(=O)O[C@@H]2C[C@@H](CC[C@H](C)/C=C\C=C\CC1)O[C@@](O)([C@@H]1CSC(=O)N1)C2 [Latruncalin A, Latrunculin A] | a rise in the Fourier coefficients, which subside again with increasing exposure time |  |  |  |  |  |  |
| CC1(C)S[C@@H]2[C@H](NC(=O)[C@H](N)c3ccccc3)C(=O)N2[C@H]1C(=O)O [AMP] |  | the intensity starts increasing again after 90 min. | a rapid decrease in the standard deviation, which is even more pronounced than in the second row | the decrease in the normalized intensity flattens at 120 min. | at 120 min. the standard deviation decreases significantly, which is again indicative of cell death | the normalized intensity decreases, which indicates a further growth of the bacteria population | the standard deviation reaches a plateau at 120 min. and decreases thereafter, which suggests that the bacteria cells die |
